Results: ChEMBL document CHEMBL1143759, “Losartan and its interaction with copper(II): biological effects” (2007)

How the values were obtained:
[1] = Inhibition of cell proliferation of rat UMR106 cells at 500 uM; assay type: functional; parameters: scale not given: the % may be the effect or the level left
[2] = Inhibition of cell proliferation of mouse MC3T3E1 cells at 500 uM; assay type: functional, MC3T3-E1; parameters: scale not given: the % may be the effect or the level left

**Q.** What does the source list for `CCCCc1nc(Cl)c(CO)n1Cc1ccc(-c2ccccc2-c2nnn[n-]2)cc1.[K+]` [LOSARTAN POTASSIUM]?
**A.** Activity [1]: 10%; Activity [2]: 10%
